Assay results as given in ChEMBL document CHEMBL1141951, “Anti-malarial activity of Baylis-Hillman adducts from substituted 2-chloronicotinaldehydes” (Bioorg Med Chem Lett, 2005).
Converted amounts (≈) assume the structure as drawn.

Key:
Assay type in all cases: functional, organism-based
[1] = test system: Plasmodium falciparum; assay: Antimalarial activity as reduced schizont maturation against chloroquine-sensitive Plasmodium falciparum FDL-B after 24 hrs
[2] = test system: Plasmodium falciparum; assay: Antimalarial activity as reduced schizont maturation after 24 hrs against chloroquine-resistant Plasmodium falciparum FDL-NG
[3] = test system: Plasmodium falciparum; assay: Antimalarial activity as growth inhibition after 48 hrs against chloroquine-sensitive Plasmodium falciparum FDL-B
[4] = test system: Plasmodium falciparum; assay: Antimalarial activity as growth inhibition after 48 hrs against chloroquine-resistant Plasmodium falciparum FDL-NG

| Structure (SMILES) | IC50 [1] [µg/mL] | IC50 [2] [µg/mL] | IC50 [3] [µg/mL] | IC50 [4] [µg/mL] | IC90 [1] [µg/mL] | IC90 [2] [µg/mL] | IC90 [4] [µg/mL] | IC90 [3] [µg/mL] |
| --- | --- | --- | --- | --- | --- | --- | --- | --- |
| C=C(C#N)C(O)c1cc(C)cnc1Cl (centres undefined) | 1.25 (≈ 5.99 µM) | 22.5 (≈ 108 µM) | 1.3 (≈ 6.23 µM) | 10.5 (≈ 50.3 µM) |  |  |  |  |
| C=C(C(=O)OC)C(O)c1cc(-c2ccccc2)cnc1Cl (centres undefined) | 45 (≈ 148 µM) | 5 (≈ 16.5 µM) | 115 (≈ 379 µM) | 10.8 (≈ 35.4 µM) |  |  |  |  |
| C=C(C#N)C(O)c1ccc(C(=O)OC)nc1Cl (centres undefined) | 3.4 (≈ 13.5 µM) | 5.75 (≈ 22.8 µM) | 7 (≈ 27.7 µM) | 6.75 (≈ 26.7 µM) |  |  |  |  |
| C=C(C(=O)OC)C(O)c1cc(C)cnc1Cl (centres undefined) | 18 (≈ 74.5 µM) | 3.05 (≈ 12.6 µM) | 28.5 (≈ 118 µM) | 5.75 (≈ 23.8 µM) | 32 (≈ 132 µM) | 7 (≈ 29 µM) | 27.5 (≈ 114 µM) |  |
| C=C(C#N)C(O)c1cc(CC)cnc1Cl (centres undefined) | 1.8 (≈ 8.08 µM) | 2.5 (≈ 11.2 µM) | 4 (≈ 18 µM) | 5.5 (≈ 24.7 µM) |  |  |  |  |
| C=C(C#N)C(O)c1cc(-c2ccccc2)cnc1Cl (centres undefined) | 3.6 (≈ 13.3 µM) | 0.9 (≈ 3.32 µM) | 8 (≈ 29.6 µM) | 2.2 (≈ 8.13 µM) |  |  |  |  |
| CCN(CC)CCCC(C)Nc1ccnc2cc(Cl)ccc12 (centres undefined) [CHLOROQUINE] |  |  |  |  | 0.018 (≈ 0.0563 µM) |  |  | 0.02 (≈ 0.0625 µM) |
